Results from patent US6737383B1, “Herbicidal oxadiazolidines” (priority 1999, dated 2004).

What was measured:
bedstraw = test: Test B pre/postemergence bedstraw; type: in vivo, Galium aparine; conditions: Preemergence
How it was run: (§1)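 Test chemicals in a non-phytotoxic solvent mixture with surfactant were sprayed preemergence onto planted seeds and postemergence onto plants 2 to 18 cm tall (1- to 4-leaf stage). After twelve to sixteen days in a greenhouse, injury was visually rated against untreated controls from 0 (no effect) to 10 (complete control).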

blackgrass = test: Test B pre/postemergence blackgrass; type: in vivo, Alopecurus myosuroides
How it was run: as §1

surinam grass = test: Test B pre/postemergence surinam grass; type: in vivo, Brachiaria decumbens
How it was run: as §1

cocklebur = test: Test B pre/postemergence cocklebur; type: in vivo, Xanthium strumarium
How it was run: as §1

corn = test: Test B pre/postemergence corn; type: in vivo, Zea mays
How it was run: as §1

crabgrass = test: Test B pre/postemergence crabgrass; type: in vivo, Digitaria sanguinalis
How it was run: as §1

giant foxtail = test: Test B pre/postemergence giant foxtail; type: in vivo, Setaria faberii
How it was run: as §1

morningglory = test: Test B pre/postemergence morningglory; type: in vivo, Ipomoea hederacea
How it was run: as §1

pigweed = test: Test B pre/postemergence pigweed; type: in vivo, Amaranthus retroflexus
How it was run: as §1

rape = test: Test B pre/postemergence rape; type: in vivo, Brassica napus
How it was run: as §1

soybean = test: Test B pre/postemergence soybean; type: in vivo, Glycine max
How it was run: as §1

sugar beet = test: Test B pre/postemergence sugar beet; type: in vivo, Beta vulgaris
How it was run: as §1

velvetleaf = test: Test B pre/postemergence velvetleaf; type: in vivo, Abutilon theophrasti
How it was run: as §1

wheat = test: Test B pre/postemergence wheat; type: in vivo, Triticum aestivum
How it was run: as §1

wild oat = test: Test B pre/postemergence wild oat; type: in vivo, Avena fatua
How it was run: as §1

purple nutsedge = test: Test B pre/postemergence purple nutsedge; type: in vivo, Cyperus rotundus
How it was run: as §1

[1] = Postemergence, Rate 62 g/ha, scale of 0 to 10, 0 is no effect, 10 is complete control
[2] = Postemergence, Rate 125 g/ha, scale 0 to 10, 0 is no effect, 10 is complete control
[3] = Postemergence, Rate 500 g/ha, scale of 0 to 10 where 0 is no effect and 10 is complete control
[4] = Preemergence, Rate 62 g/ha, scale 0 to 10 (0 no effect, 10 complete control)
[5] = Preemergence, Rate 125 g/ha, scale 0 to 10, 0 is no effect, 10 is complete control
[6] = Preemergence, Rate 500 g/ha, scale of 0 to 10 where 0 is no effect and 10 is complete control
[7] = Rate 250 g/ha, Postemergence, scale of 0 to 10 where 0 is no effect and 10 is complete control

For `CC(C)N(C(=O)n1oc(=O)n(CCC(F)=C(F)F)c1=O)c1ccccc1` [Compound 566], which “Bedstraw plant response rating” value (bedstraw; Rate 62 g/ha, scale 0 to 10 (0 no effect, 10 complete control)) is on record?
Its value is 0.

What about the “Bedstraw plant response rating” value (bedstraw; Rate 125 g/ha, scale 0 to 10, 0 is no effect, 10 is complete control) of the same compound?
The value was 0.

And the “Bedstraw plant response rating (0 to 10 scale)” value (bedstraw; Rate 250 g/ha)?
Its value is 0.

And the “Bedstraw plant response rating” value (bedstraw; Rate 500 g/ha, scale of 0 to 10 where 0 is no effect and 10 is complete control)?
Its value is 0.

And the “Blackgrass plant response rating” value (blackgrass; [1])?
The value was 0.

And the “Blackgrass plant response rating” value (blackgrass; [2])?
Its value is 2.

What about the “Plant response rating, Blackgrass” value (blackgrass; [3]) of the same compound?
Its value is 6.

What about the “Blackgrass plant response rating” value (blackgrass; [4]) of the same compound?
The value was 3.

And the “Blackgrass plant response rating” value (blackgrass; [5])?
Its value is 9.

And the “Blackgrass plant response rating (0 to 10 scale)” value (blackgrass; Preemergence, Rate 250 g/ha)?
The value was 10.

What about the “Blackgrass plant response rating” value (blackgrass; [6]) of the same compound?
Its value is 10.

What about the “Plant response rating, Blackgrass” value (blackgrass; [7]) of the same compound?
Its value is 3.

What about the “B. signalgrass plant response rating” value (surinam grass; [1]) of the same compound?
Its value is 2.

And the “B. signalgrass plant response rating” value (surinam grass; [2])?
The value was 8.

What about the “Plant response rating, B. signalgrass” value (surinam grass; [3]) of the same compound?
Its value is 9.

What about the “B. signalgrass plant response rating” value (surinam grass; [4]) of the same compound?
Its value is 9.

And the “B. signalgrass plant response rating” value (surinam grass; [5])?
Its value is 9.

What about the “B. signalgrass plant response rating (0 to 10 scale, 0 is no effect, 10 is complete control)” value (surinam grass; Preemergence, Rate 250 g/ha) of the same compound?
The value was 10.

What about the “B. signalgrass plant response rating” value (surinam grass; [6]) of the same compound?
The value was 9.

And the “Plant response rating, B. signalgrass” value (surinam grass; [7])?
The value was 8.

And the “Cocklebur plant response rating” value (cocklebur; [1])?
The value was 2.

What about the “Cocklebur plant response rating” value (cocklebur; [2]) of the same compound?
The value was 2.

What about the “Plant response rating, Cocklebur” value (cocklebur; [3]) of the same compound?
The value was 3.

And the “Cocklebur plant response rating” value (cocklebur; [4])?
Its value is 0.

And the “Cocklebur plant response rating” value (cocklebur; [5])?
The value was 0.

What about the “Cocklebur plant response rating (0 to 10 scale)” value (cocklebur; Preemergence, Rate 250 g/ha) of the same compound?
Its value is 0.

And the “Cocklebur plant response rating” value (cocklebur; [6])?
Its value is 0.

And the “Plant response rating, Cocklebur” value (cocklebur; [7])?
Its value is 2.

And the “Corn plant response rating” value (corn; [1])?
Its value is 0.

What about the “Corn plant response rating” value (corn; [2]) of the same compound?
The value was 0.

And the “Plant response rating, Corn” value (corn; [3])?
Its value is 2.

And the “Corn plant response rating” value (corn; [4])?
Its value is 0.

And the “Corn plant response rating” value (corn; [5])?
The value was 2.

What about the “Corn plant response rating (0 to 10 scale)” value (corn; Preemergence, Rate 250 g/ha) of the same compound?
Its value is 2.

What about the “Corn plant response rating” value (corn; [6]) of the same compound?
Its value is 9.

What about the “Plant response rating, Corn” value (corn; [7]) of the same compound?
The value was 2.

And the “Crabgrass plant response rating” value (crabgrass; [1])?
The value was 2.

And the “Crabgrass plant response rating” value (crabgrass; [2])?
Its value is 8.

What about the “Plant response rating, Crabgrass” value (crabgrass; [3]) of the same compound?
Its value is 9.

And the “Crabgrass plant response rating” value (crabgrass; [4])?
Its value is 9.

What about the “Crabgrass plant response rating” value (crabgrass; [5]) of the same compound?
The value was 9.

And the “Crabgrass plant response rating (0 to 10 scale)” value (crabgrass; Preemergence, Rate 250 g/ha)?
The value was 9.

What about the “Crabgrass plant response rating” value (crabgrass; [6]) of the same compound?
The value was 10.

And the “Plant response rating, Crabgrass” value (crabgrass; [7])?
The value was 10.

And the “Giant foxtail plant response rating” value (giant foxtail; [1])?
The value was 0.

What about the “Giant foxtail plant response rating” value (giant foxtail; [2]) of the same compound?
Its value is 8.

And the “Plant response rating, Giant foxtail” value (giant foxtail; [3])?
The value was 9.

What about the “Giant foxtail plant response rating” value (giant foxtail; [4]) of the same compound?
The value was 9.

What about the “Giant foxtail plant response rating” value (giant foxtail; [5]) of the same compound?
The value was 10.

What about the “Giant foxtail plant response rating (0 to 10 scale)” value (giant foxtail; Preemergence, Rate 250 g/ha) of the same compound?
The value was 10.

What about the “Giant foxtail plant response rating” value (giant foxtail; [6]) of the same compound?
Its value is 10.

What about the “Plant response rating, Giant foxtail” value (giant foxtail; [7]) of the same compound?
Its value is 8.

And the “Morningglory plant response rating” value (morningglory; [1])?
The value was 5.

And the “Morningglory plant response rating” value (morningglory; [2])?
Its value is 5.

And the “Plant response rating, Morningglory” value (morningglory; [3])?
Its value is 10.

And the “Morningglory plant response rating” value (morningglory; [4])?
Its value is 0.

And the “Morningglory plant response rating” value (morningglory; [5])?
The value was 0.

What about the “Morningglory plant response rating (0 to 10 scale)” value (morningglory; Preemergence, Rate 250 g/ha) of the same compound?
Its value is 0.

And the “Morningglory plant response rating” value (morningglory; [6])?
The value was 0.

What about the “Plant response rating, Morningglory” value (morningglory; [7]) of the same compound?
The value was 6.

What about the “Redroot pigweed plant response rating” value (pigweed; [1]) of the same compound?
Its value is 3.

And the “Plant response rating, Redroot pigweed” value (pigweed; [3])?
Its value is 5.

And the “Redroot pigweed plant response rating” value (pigweed; [4])?
Its value is 0.

And the “Redroot pigweed plant response rating” value (pigweed; [5])?
The value was 9.

What about the “Redroot pigweed plant response rating (0 to 10 scale)” value (pigweed; Preemergence, Rate 250 g/ha) of the same compound?
The value was 9.

And the “Redroot pigweed plant response rating” value (pigweed; [6])?
Its value is 10.

What about the “Rape plant response rating” value (rape; [1]) of the same compound?
Its value is 0.

What about the “Rape plant response rating” value (rape; [2]) of the same compound?
Its value is 0.

And the “Plant response rating, Rape” value (rape; [3])?
Its value is 9.

What about the “Rape plant response rating” value (rape; [4]) of the same compound?
The value was 0.

What about the “Rape plant response rating” value (rape; [5]) of the same compound?
Its value is 0.

What about the “Rape plant response rating (0 to 10 scale)” value (rape; Preemergence, Rate 250 g/ha) of the same compound?
The value was 7.

And the “Rape plant response rating” value (rape; [6])?
Its value is 10.

And the “Plant response rating, Rape” value (rape; [7])?
Its value is 9.

What about the “Soybean plant response rating” value (soybean; [1]) of the same compound?
The value was 4.

And the “Plant response rating, Soybean” value (soybean; [3])?
Its value is 6.

And the “Soybean plant response rating” value (soybean; [4])?
Its value is 0.

What about the “Soybean plant response rating” value (soybean; [5]) of the same compound?
The value was 0.

And the “Soybean plant response rating (0 to 10 scale)” value (soybean; Preemergence, Rate 250 g/ha)?
The value was 0.

And the “Soybean plant response rating” value (soybean; [6])?
Its value is 0.

And the “Plant response rating, Soybean” value (soybean; [7])?
Its value is 6.

And the “Sugarbeets plant response rating” value (sugar beet; [1])?
The value was 0.

What about the “Plant response rating, Sugarbeets” value (sugar beet; [3]) of the same compound?
Its value is 5.

What about the “Sugarbeets plant response rating” value (sugar beet; [4]) of the same compound?
The value was 0.

And the “Sugarbeets plant response rating” value (sugar beet; [5])?
The value was 4.

And the “Sugarbeets plant response rating (0 to 10 scale)” value (sugar beet; Preemergence, Rate 250 g/ha)?
The value was 6.

What about the “Sugarbeets plant response rating” value (sugar beet; [6]) of the same compound?
Its value is 6.

And the “Velvetleaf plant response rating” value (velvetleaf; [1])?
The value was 3.

And the “Plant response rating, Velvetleaf” value (velvetleaf; [3])?
The value was 5.

What about the “Velvetleaf plant response rating” value (velvetleaf; [4]) of the same compound?
The value was 0.

What about the “Velvetleaf plant response rating” value (velvetleaf; [5]) of the same compound?
The value was 0.

And the “Velvetleaf plant response rating (0 to 10 scale)” value (velvetleaf; Preemergence, Rate 250 g/ha)?
Its value is 0.

What about the “Velvetleaf plant response rating” value (velvetleaf; [6]) of the same compound?
Its value is 2.

What about the “Plant response rating, Velvetleaf” value (velvetleaf; [7]) of the same compound?
The value was 5.

And the “Wheat plant response rating” value (wheat; [1])?
Its value is 0.

And the “Plant response rating, Wheat” value (wheat; [3])?
Its value is 4.

What about the “Wheat plant response rating” value (wheat; [4]) of the same compound?
Its value is 0.

And the “Wheat plant response rating” value (wheat; [5])?
The value was 6.

And the “Wheat plant response rating (0 to 10 scale)” value (wheat; Preemergence, Rate 250 g/ha)?
The value was 6.

And the “Wheat plant response rating” value (wheat; [6])?
Its value is 7.

And the “Plant response rating, Wheat” value (wheat; [7])?
Its value is 0.

And the “Wild oats plant response rating” value (wild oat; [1])?
The value was 0.

And the “Plant response rating, Wild oats” value (wild oat; [3])?
Its value is 4.

What about the “Wild oats plant response rating” value (wild oat; [4]) of the same compound?
Its value is 3.

And the “Wild oats plant response rating” value (wild oat; [5])?
The value was 9.

What about the “Wild oats plant response rating (0 to 10 scale)” value (wild oat; Preemergence, Rate 250 g/ha) of the same compound?
The value was 8.

What about the “Wild oats plant response rating” value (wild oat; [6]) of the same compound?
Its value is 10.

What about the “Plant response rating, Wild oats” value (wild oat; [7]) of the same compound?
The value was 0.

And the “Nutsedge plant response rating” value (purple nutsedge; [1])?
The value was 0.

And the “Nutsedge plant response rating” value (purple nutsedge; [2])?
Its value is 0.

What about the “Plant response rating, Nutsedge” value (purple nutsedge; [3]) of the same compound?
Its value is 0.

What about the “Nutsedge plant response rating” value (purple nutsedge; [4]) of the same compound?
The value was 0.

What about the “Nutsedge plant response rating” value (purple nutsedge; [5]) of the same compound?
Its value is 0.

What about the “Nutsedge plant response rating (0 to 10 scale)” value (purple nutsedge; Preemergence, Rate 250 g/ha) of the same compound?
The value was 0.

And the “Nutsedge plant response rating” value (purple nutsedge; [6])?
Its value is 0.
